Experimental data from patent US20130225641A1, “ANTICANCER COMPOUNDS AND PREPARATION METHODS THEREOF” (priority 2010, published 2013).

Key:
SGC-7901 = test: MTT cytotoxicity, SGC-7901; format: cell-based; conditions: Homo sapiens, SGC-7901, Gastric, 72 hrs, read-out: LC50 (the source's name)
Protocol: (§1) The cytotoxicity of ZTP and ZTQ was analyzed by using human tumor cell lines. Human tumor cell lines were purchased from ATCC and NCI, and cultured in DMEM medium containing 10% FBS at 37° C. in 5% CO2 in an incubator. The cells grown to confluence were used for cytotoxicity analysis. The cells were digested with trypsin, washed with the culture medium, and then counted. 33 tumor cell lines were cultured. The cells were seeded at a density of 3000-6000 cells/well in a 96-well plate and incubated for 16-24 hrs. Then, various concentrations of ZTP or ZTQ dissolved in DMSO were added, and cultured for 72 hrs. The drug-treated cells and control cells were analyzed by MTT.

A549 = test: MTT cytotoxicity, A549; format: cell-based; conditions: Homo sapiens, A549, Lung, 72 hrs, read-out: LC50 (the source's name)
Protocol: as §1

[1] = system: human colon cancer cells (HCT-116); test: Transplantation model of human colon cancer (HCT-116) in nude mice; format: in vivo, nude mice (nu/nu); conditions: HCT-116 subcutaneous in nude mice; oral daily 5 days/week, 3 weeks; ZTP 30 mg/kg, ZTQ 60 mg/kg; lower = stronger
Protocol: (§2) T-cell deficient nude mice (nu/nu) of 6 weeks old were purchased from Charles River Laboratory, and housed and treated in a sterile environment following Institutional Animal Care & Use Committee Program. 48 mice were respectively subcutaneously inoculated on ribbed belly with 5×10^6 human liver cancer cells (HepG3B), human lung caner cells (NCI-H23), and human colon cancer cells (HCT-116) suspended in 0.2 ml HBSS/matrigel (50:50, V/V). When the tumor grew to have an average diameter of 7-8 mm and a volume of about 100-200 mm^3, 24 mice were picked up, and assigned to treatment groups (16 animals/2 groups), and a control group (8 animals). The 2 treatment groups were administered with the compounds ZTP and ZTQ dissolved in 15% Captsol respectively at a dose of 30 mg/kg and 60 mg/kg, and the control group only received an excipient (15% Captsol).
(§3) The same number of mice of each type was assigned to the control group and the treatment groups with the compounds ZTP and ZTQ respectively.
(§4) The dose schedule of the test compounds in the tumor transplanted nude mice was as follows: the compounds ZTP and ZTQ dissolved in 15% Captsol were daily orally administered as a 200 μl solution containing 0.75 mg of ZTP and 1.5 mg of ZTQ for 5 days/week over 3 consecutive weeks, followed by one-week break; and the control group was only administered with 200 μl of the placebo (15% Captsol) for 3 weeks, followed by 1 week of break. The two groups of animals were housed separately, and allowed to free access to food.
(§5) Evaluation of antitumor effect: the tumor size was measured every 3 or 4 days. The tumor volume was calculated using the equation below: […], in which a denotes the width (the shorter diameter), and b denotes the length (the longer diameter). Relative tumor volume (RTV) of each tumor refers to the ratio of the volume at a specified time to that at the beginning of the treatment. The average RTV for each treatment group was calculated. The antitumor activity was determined by calculating the tumor growth inhibition using a formula below. […]

[2] = system: human lung cancer cells (NCI-H23); test: Transplantation model of human lung cancer (NCI-H23) in nude mice; format: in vivo, nude mice (nu/nu); conditions: NCI-H23 subcutaneous in nude mice; oral daily 5 days/week, 3 weeks; ZTP 30 mg/kg, ZTQ 60 mg/kg; lower = stronger
Protocol: as §2, §3, §4, §5

PC3 = test: MTT cytotoxicity, PC3; format: cell-based; conditions: Homo sapiens, PC-3, PC3, Prostatic, 72 hrs, read-out: LC50 (the source's name)
Protocol: as §1

IGROV1 = test: MTT cytotoxicity, IGROV1; format: cell-based; conditions: Homo sapiens, IGROV-1, IGROV1, Ovarian, 72 hrs, read-out: LC50 (the source's name)
Protocol: as §1

LoVo = test: MTT cytotoxicity, LoVo; format: cell-based; conditions: Homo sapiens, Colonic, 72 hrs, read-out: LC50 (the source's name)
Protocol: as §1

VEGFR protein kinase = test: Inhibition of VEGFR protein kinase activity (phosphorylated VEGFR, western blotting) in HUMEC cells; format: cell-based, human; conditions: 1 hour treatment, phosphorylated VEGFR level, read-out: median inhibitory concentration (IC50) for inhibiting the activity of VEGFR protein kinase
Description: VEGFR is a vascular endothelial growth factor receptor regulating the growth, migration, and differentiation of vascular endothelial cells, and determining the start of angiogenesis of tumors. After being stimulated by vascular endothelial cell growth factors, VEGFR forms a dimer, activates its kinase, and makes themselves phosphorylated. The level of the activity of VEGFR protein kinase is detected according to the phosphorylated degree of VEGFR. In this test, we used human microvascular endothelial cells (HUMECs) to determine whether ZTP and ZTQ can inhibit the activity of VEGFR protein kinase. HUMEC cells were subjected to adherent growth in DMEM medium (GIBCO-BRL) containing 10% bovine calf serum at 37° C. in 5% CO2. The cells were treated with various concentrations of ZTP and ZTQ (0, 10 ng/ml, 100 ng/ml, 500 ng/ml, 1 μg/ml, and 10 μg/ml), and the cell proteins were collected 1 hour after treatment. The protein content was determined through Bradford method, and then the level of phosphorylated VEGFR was assayed through western blotting. Immunoblotting experiment: denatured polyacrylamide gel was used for separation of the proteins with a sample load of 60 μg of total proteins. The proteins were electro-transferred onto a PVDF membrane and blocked. […] The membrane was exposed to an X-ray film, and the results were analyzed by a gel imaging system. […]

MDA-MB-435 = test: MTT cytotoxicity, MDA-MB-435; format: cell-based; conditions: Homo sapiens, MDA-MB-435, Breast, 72 hrs, read-out: LC50 (the source's name)
Protocol: as §1

G-361 = test: MTT cytotoxicity, G-361; format: cell-based; conditions: Homo sapiens, G-361, Skin (melanoma), 72 hrs, read-out: LC50 (the source's name)
Protocol: as §1

NCI-H23 = test: MTT cytotoxicity, NCI-H23; format: cell-based; conditions: Homo sapiens, NCI-H23, Lung, 72 hrs, read-out: LC50 (the source's name)
Protocol: as §1

Compound	CC50 (SGC-7901)	CC50 (A549)	TGI (T/C×100) [1]	TGI (T/C×100) [2]	CC50 (PC3)	CC50 (IGROV1)	CC50 (LoVo)	IC50 (VEGFR protein kinase)	CC50 (MDA-MB-435)	CC50 (G-361)	CC50 (NCI-H23)
CNC(=O)c1cc(Oc2ccc(NC(=S)Nc3ccc(Cl)c(C(F)(F)F)c3)cc2)ccn1 [ZTP, N-[4-chloro-3-(trifluoromethyl)phenyl]-[4-(N-methyl-formamide)(4-pyridyloxy)phenyl]-thiourea]	1310 nM	1220 nM	29.2%	10%	1310 nM	920 nM	1310 nM	21 nM	1370 nM	1910 nM	890 nM
CNC(=O)c1cc(Sc2ccc(NC(=S)Nc3ccc(Cl)c(C(F)(F)F)c3)cc2)ccn1 [ZTQ, N-[4-chloro-3-(trifluoromethyl)phenyl]-[4-(N-methyl-formamide)(4-pyridylthio)phenyl]-thiourea]	1030 nM	1010 nM	6.45%	9.21%	1050 nM	730 nM	1100 nM	9 nM	1120 nM	1360 nM	710 nM
